Laboratory results published in ChEMBL document CHEMBL4814027, “Synthesis and biological evaluation of naphthoquinone phenacylimidazolium derivatives” (Bioorg Med Chem Lett, 2021).

Tests used:
[1] = Selectivity ratio of IC50 for mouse L929 cells to IC50 for human A549 cells; format: toxicity; conditions: L929 cells versus A549 cells, read-out: Ratio IC50
L929 = test: Cytotoxicity against mouse L929 cells by MTT assay
HeLa = test: Cytotoxicity against human HeLa cells by MTT assay; format: functional, cell-based
[2] = Selectivity ratio of IC50 for mouse L929 cells to IC50 for human HeLa cells; format: toxicity; conditions: L929 cells versus HeLa cells, read-out: Ratio IC50
A549 = test: Cytotoxicity against human A549 cells by MTT assay
[3] = Selectivity ratio of IC50 for mouse L929 cells to IC50 for human MCF7 cells; format: toxicity; conditions: L929 cells versus MCF7 cells, read-out: Ratio IC50
MCF7 = test: Cytotoxicity against human MCF7 cells by MTT assay; format: functional, cell-based

| SMILES | selectivity ratio [1] | IC50 (L929) [µM] | IC50 (HeLa) [µM] | selectivity ratio [2] | IC50 (A549) [µM] | selectivity ratio [3] | IC50 (MCF7) [µM] |
| --- | --- | --- | --- | --- | --- | --- | --- |
| Cn1c[n+](CC(=O)c2ccc(Br)cc2)c2c1C(=O)c1ccccc1C2=O | 21.8 | 20.7 | 8.3 | 2.49 | 0.95 | 2.84 | 7.3 |
| Cn1c[n+](CC(=O)c2ccccc2[N+](=O)[O-])c2c1C(=O)c1ccccc1C2=O | 83.6 | 41.8 | 8.7 | 4.8 | 0.5 | 2.32 | 18 |
| CCC(C)n1c[n+](CC(=O)c2ccc([N+](=O)[O-])cc2)c2c1C(=O)c1ccccc1C2=O (configuration not stated) | 15.1 | 27.1 | 8.4 | 3.23 | 1.8 | 3.04 | 8.9 |
| Cn1c[n+](CC(=O)c2ccc(Cl)cc2)c2c1C(=O)c1ccccc1C2=O | 14.2 | 14.2 | 6.6 | 2.15 | 1 | 2.9 | 4.9 |
| COc1ccc(C(=O)C[n+]2cn(C)c3c2C(=O)c2ccccc2C3=O)cc1 | 48.8 | 11.7 | 1.6 | 7.31 | 0.24 | 16.5 | 0.71 |
| CN(C)C(=O)C[n+]1cn(C)c2c1C(=O)c1ccccc1C2=O | 43 | 4.3 | 0.2 | 21.5 | 0.1 | 0.57 | 7.6 |
| CC(C)Cn1c[n+](CC(=O)c2ccccc2)c2c1C(=O)c1ccccc1C2=O | 8.44 | 2.7 | 0.9 | 3 | 0.32 | 5.19 | 0.52 |
| Cn1c[n+](CC(=O)c2ccco2)c2c1C(=O)c1ccccc1C2=O | 136 | 13.6 | 4.9 | 2.78 | 0.1 | 9.71 | 1.4 |
| COCCn1c[n+](CC(=O)c2ccc([N+](=O)[O-])cc2)c2c1C(=O)c1ccccc1C2=O | 14.2 | 41.3 | 7.8 | 5.29 | 2.9 | 2.19 | 18.9 |
| CC(C)Cn1c[n+](CC(=O)c2ccco2)c2c1C(=O)c1ccccc1C2=O | 23 | 8.5 | 0.6 | 14.2 | 0.37 | 26.6 | 0.32 |
| Cc1ccc(C(=O)C[n+]2cn(CC(C)C)c3c2C(=O)c2ccccc2C3=O)cc1 | 13.7 | 4.8 | 1.8 | 2.67 | 0.35 | 8.57 | 0.56 |
| C#CCn1c[n+](CC(=O)c2ccc([N+](=O)[O-])cc2)c2c1C(=O)c1ccccc1C2=O | 1.26 | 19 | 17.2 | 1.1 | 15.1 | 0.46 | 40.9 |
| Cn1c[n+](CC(=O)c2ccccc2)c2c1C(=O)c1ccccc1C2=O | 71.2 | 29.9 | 1.5 | 19.9 | 0.42 | 80.8 | 0.37 |
| Cn1c[n+](CC(=O)c2ccc(C(F)(F)F)cc2)c2c1C(=O)c1ccccc1C2=O | 14.9 | 19.3 | 9.2 | 2.1 | 1.3 | 2.61 | 7.4 |
| COc1ccc(C(=O)C[n+]2cn(CC(C)C)c3c2C(=O)c2ccccc2C3=O)cc1 | 12.1 | 2.3 | 0.08 | 28.8 | 0.19 | 7.42 | 0.31 |
| CC(C)Cn1c[n+](CC(=O)c2cccc([N+](=O)[O-])c2)c2c1C(=O)c1ccccc1C2=O | 5.59 | 16.2 | 4.2 | 3.86 | 2.9 | 5.79 | 2.8 |
| CC(C)Cn1c[n+](CC(=O)c2ccc(Br)cc2)c2c1C(=O)c1ccccc1C2=O | 6.46 | 15.5 | 2.7 | 5.74 | 2.4 | 22.5 | 0.69 |
| Cn1c[n+](CC(=O)c2cccs2)c2c1C(=O)c1ccccc1C2=O | 76.3 | 22.9 | 7 | 3.27 | 0.3 | 24.4 | 0.94 |

| SMILES | selectivity ratio [1] | IC50 (L929) [µM] | IC50 (HeLa) [µM] | selectivity ratio [2] | IC50 (A549) [µM] | selectivity ratio [3] | IC50 (MCF7) [µM] |
| --- | --- | --- | --- | --- | --- | --- | --- |
| Cn1c[n+](CC(=O)c2cccc([N+](=O)[O-])c2)c2c1C(=O)c1ccccc1C2=O | 16.8 | 36.9 | 7.6 | 4.86 | 2.2 | 2.86 | 12.9 |
| O=C(C[n+]1cn(C2CC2)c2c1C(=O)c1ccccc1C2=O)c1ccc([N+](=O)[O-])cc1 | 0.5 | 6.1 | 22.2 | 0.27 | 12.3 | 0.1 | 60.4 |
| CC(C)c1cccc(C(C)C)c1-n1c[n+](CC(=O)c2ccc([N+](=O)[O-])cc2)c2c1C(=O)c1ccccc1C2=O | 1.74 | 46.5 | > 100 | < 0.47 | 26.7 | 0.97 | 47.9 |
| CC(C)Cn1c[n+](CC(=O)N(C)C)c2c1C(=O)c1ccccc1C2=O | 147 | 58.8 | 12.8 | 4.59 | 0.4 | 0.9 | 65.6 |
| CC(C)Cn1c[n+](CC(=O)c2ccc(Cl)cc2)c2c1C(=O)c1ccccc1C2=O | 2.85 | 9.4 | 3.8 | 2.47 | 3.3 | 14.2 | 0.66 |
| CC(C)Cn1c[n+](CC(=O)c2ccccc2[N+](=O)[O-])c2c1C(=O)c1ccccc1C2=O | 3.78 | 133 | 73.6 | 1.81 | 35.2 | 2.4 | 55.4 |
| CC(C)Cn1c[n+](CC(=O)c2ccc([N+](=O)[O-])cc2)c2c1C(=O)c1ccccc1C2=O | 4.6 | 4.6 | 2.7 | 1.7 | 1 | 2 | 2.3 |
| Cc1ccc(C(=O)C[n+]2cn(C)c3c2C(=O)c2ccccc2C3=O)cc1 | 91.9 | 14.7 | 3.5 | 4.2 | 0.16 | 24.5 | 0.6 |
| Cn1c[n+](CC(=O)C(C)(C)C)c2c1C(=O)c1ccccc1C2=O | 11.4 | 27.4 | 5.8 | 4.72 | 2.4 | 3.61 | 7.6 |
| CCn1c[n+](CC(=O)c2ccc([N+](=O)[O-])cc2)c2c1C(=O)c1ccccc1C2=O | 13.2 | 27.7 | 8.8 | 3.15 | 2.1 | 1.66 | 16.7 |
| Cn1c[n+](CC(=O)c2ccc3ccccc3c2)c2c1C(=O)c1ccccc1C2=O | 13.6 | 19 | 6.1 | 3.11 | 1.4 | 1.81 | 10.5 |
| CC(C)Cn1c[n+](CC(=O)c2ccc(C(F)(F)F)cc2)c2c1C(=O)c1ccccc1C2=O | 3.37 | 26.3 | 9.2 | 2.86 | 7.8 | 3.46 | 7.6 |
| Cn1c[n+](CC(=O)c2ccc([N+](=O)[O-])cc2)c2c1C(=O)c1ccccc1C2=O | 14.8 | 53.1 | 10.1 | 5.26 | 3.6 | 4.39 | 12.1 |
| O=C(C[n+]1cn(-c2ccccc2)c2c1C(=O)c1ccccc1C2=O)c1ccc([N+](=O)[O-])cc1 | 0.77 | 31 | 20.3 | 1.53 | 40.4 | 0.52 | 59.1 |
| Cn1c[n+](CC(=O)c2ccc(F)cc2)c2c1C(=O)c1ccccc1C2=O | 12.1 | 18.2 | 3.1 | 5.87 | 1.5 | 53.5 | 0.34 |
| CC(C)Cn1c[n+](CC(=O)C(C)(C)C)c2c1C(=O)c1ccccc1C2=O | 3.15 | 10.4 | 9.4 | 1.11 | 3.3 | 1 | 10.4 |
| CCCCn1c[n+](CC(=O)c2ccc([N+](=O)[O-])cc2)c2c1C(=O)c1ccccc1C2=O | 8 | 20 | 4.4 | 4.55 | 2.5 | 3.23 | 6.2 |
| CC(C)Cn1c[n+](CC(=O)c2ccc3ccccc3c2)c2c1C(=O)c1ccccc1C2=O | 13.6 | 17.7 | 4.3 | 4.12 | 1.3 | 6.56 | 2.7 |
